In patent US8546608B2, “Proteasome inhibitors and methods of using the same” (Cephalon, Inc., priority 2003, dated 2013) one finds IC50 and EC50 data, which are given here for 22 molecules.

Counter-ions that a name gives are not always drawn. Like-named read-outs stand apart in the source and are kept apart here.

Experiment [1] addresses T1, 20S Human Erythrocyte Proteasome (HEP) (Homo sapiens, UniProt P20618+P28074).
T1 construct: 20S Human Erythrocyte Proteasome (HEP), purchased from Immatics Biotechnologies Inc; purchased Immatics Biotechnologies Inc., Tübingen, Germany; host or cells: human erythrocytes (natural source)
Nature of the experiment: Chymotrypsin-like activity of 20S Human Erythrocyte Proteasome (HEP), IC50 determination. Type of experiment: biochemical. Particulars: assay of Example C, inhibition of HEP. An outline of the steps:
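20S proteasome at 0.2 μg/mL (about 0.6 nM catalytic sites) in 20 mM Tris with 0.04% SDS, preincubated 15 min at 37° C with inhibitor before Suc-LLVY-AMC (100 μM final). AMC fluorescence read in the linear range; triplicates, IC50 from concentration series.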

In experiment [2] the target is T2, proteasome in Molt-4 cells (human leukemia) (Homo sapiens, UniProt P20618+P28074).
T2 sequence (P28074 60-263): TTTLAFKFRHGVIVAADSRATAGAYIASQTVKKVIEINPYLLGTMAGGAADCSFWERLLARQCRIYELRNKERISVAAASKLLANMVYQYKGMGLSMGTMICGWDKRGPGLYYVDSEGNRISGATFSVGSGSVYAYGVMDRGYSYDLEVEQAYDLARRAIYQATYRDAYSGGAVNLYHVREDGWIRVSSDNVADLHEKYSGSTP
T2 sequence (P20618 29-241): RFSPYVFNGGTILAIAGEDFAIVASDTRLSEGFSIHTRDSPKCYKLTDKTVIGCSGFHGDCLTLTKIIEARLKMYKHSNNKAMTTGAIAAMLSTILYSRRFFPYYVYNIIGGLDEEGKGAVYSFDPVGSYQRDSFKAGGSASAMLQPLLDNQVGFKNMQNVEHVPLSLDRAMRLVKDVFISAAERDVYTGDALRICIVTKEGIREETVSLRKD
It is filed as cell-based. A digest of the protocol: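 Intact Molt-4 cells (6×10^6 cells/mL) in HEPES-buffered saline were preincubated with inhibitor 15 min at 37 °C, then given cell-permeable MeOSuc-FLF-AFC at 25 μM final.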

The mark [3] stands for this setting: assay of Example E, inhibition of MOLT4; read-out: MOLT4 (EC50).

The term IC50 denotes the concentration that inhibits the measured activity by half. Higher therefore signals weaker potency in that assay. The EC50 is the concentration needed to bring the measured effect to its halfway point. For `CC(C)C[C@H](NC(=O)[C@H](CCCNC(=N)N[N+](=O)[O-])NC(=O)CCCCCc1ccccc1)B1O[C@@H]2C[C@@H]3C[C@@H](C3(C)C)[C@]2(C)O1` [D.3.131, 6-Phenylhexanamide,N-[(1S)-1-[[[(1R)-1-[(3aS,4S,6S,7aR)-hexahydro-3a,5,5-trimethyl-4,6-methano-1,3,2-benzodioxaborol-2-yl]-3-methylbutyl]amino]carbonyl]-4-[[imino(nitroamino)methyl]amino]butyl]], the IC50 in experiment [1] was < 10 nM. The EC50 in experiment [2] (setting [3]) is < 200 nM.
As for `CC(=O)N1CCC[C@H]1C(=O)N[C@@H](CCCNC(=N)N[N+](=O)[O-])C(=O)N[C@@H](CC(C)C)B(O)O` [E.2.51, Boronic acid, [(1R)-1-[[(2S)-5-[[imino(nitroamino)methyl]amino]-2-[((2S)-1-acetylpyrrolidine-2-carbonyl)amino]-1-oxopentyl]amino]-3-methylbutyl]], the IC50 in experiment [1] is < 100 nM. For the same molecule, in experiment [2] (setting [3]), the EC50 is > 10000 nM.
With `CCCCc1ccc(C(=O)N[C@@H](CCCNC(=N)N[N+](=O)[O-])C(=O)N[C@@H](CC(C)C)B(O)O)cc1` [E.1.3, Boronic acid, [(1R)-1-[[(2S)-5-[[imino(nitroamino)methyl]amino]-2-[(4-butyl-benzoyl)amino]-1-oxopentyl]amino]-3-methylbutyl]], in experiment [1], the IC50 was < 10 nM. Also, in experiment [2] (setting [3]), the EC50 fell in the range of 200 to 2000 nM.
As to `CC(C)C[C@H](NC(=O)[C@H](CCCNC(=N)N[N+](=O)[O-])NC(=O)CCN1C(=O)c2ccccc2C1=O)B(O)O` [E.1.5], the IC50 in experiment [1] was < 10 nM. Besides, the EC50 in experiment [2] (setting [3]) is > 10000 nM.
With `CCCOc1cccc(C(=O)N[C@H](C(=O)N[C@@H](CC(C)C)B(O)O)[C@@H](C)O)c1` [E.3.10, Boronic acid, [(1R)-1-[[(2S,3R)-3-hydroxy-2-[(3-propoxy-benzoyl)amino]-1-oxobutyl]amino]-3-methylbutyl]], the IC50 in experiment [1] was < 10 nM. The EC50 in experiment [2] (setting [3]) was < 200 nM.
For `CC(C)C[C@H](NC(=O)[C@H](CCCNC(=N)N[N+](=O)[O-])NC(=O)CC1C=CCC1)B1O[C@@H]2C[C@@H]3C[C@@H](C3(C)C)[C@]2(C)O1` (mixture of isomers) [D.3.59], in experiment [1], the IC50 is < 10 nM. Moreover, the EC50 in experiment [2] (setting [3]) was 200 to 2000 nM.
Consider `Cc1cc(C(=O)N[C@@H](CCCNC(=N)N[N+](=O)[O-])C(=O)N[C@@H](CC(C)C)B(O)O)ccc1F` [D.7.37], for which the IC50 in experiment [1] is < 10 nM. Further, the EC50 in experiment [2] (setting [3]) was > 10000 nM.
Regarding `CCOC(=O)/C=C/C(=O)N[C@@H](CCCNC(=N)N[N+](=O)[O-])C(=O)N[C@@H](CC(C)C)B(O)O` [E.1.1, Boronic acid, [(1R)-1-[[(2S)-5-[[imino(nitroamino)methyl]amino]-2-[((2E)-3-ethoxycarbonyl-1-oxoprop-2-enyl)amino]-1-oxopentyl]amino]-3-methylbutyl]], the IC50 in experiment [1] is < 10 nM. Also, the EC50 in experiment [2] (setting [3]) was > 10000 nM.
The like results for `CC(C)C[C@H](NC(=O)[C@H](CCCNC(=N)N[N+](=O)[O-])NC(=O)Cc1ccsc1)B(O)O` [E.2.62, Boronic acid, [(1R)-1-[[(2S)-5-[[imino(nitroamino)methyl]amino]-2-[(2-thiophen-3-yl-acetyl)amino]-1-oxopentyl]amino]-3-methylbutyl]] were, in that order, < 10 nM and > 10000 nM.
As to `CCCCCCCCCC(=O)N[C@@H](CCCNC(=N)N[N+](=O)[O-])C(=O)N[C@@H](CC(C)C)B(O)O` [E.2.1, Boronic acid, [(1R)-1-[[(2S)-5-[[imino(nitroamino)methyl]amino]-2-[(1-oxodecyl)amino]-1-oxopentyl]amino]-3-methylbutyl]], in experiment [1], the IC50 was < 10 nM. Further, in experiment [2] (setting [3]), the EC50 is < 200 nM.
As for `CC(C)C[C@H](NC(=O)[C@H](CCCNC(=N)N[N+](=O)[O-])NC(=O)/C=C/c1ccc2ccccc2c1)B(O)O` [D.7.36, Boronic acid, [(1R)-1-[[(2S)-5-[[imino(nitroamino)methyl]amino]-2-[[(E)-3-(naphthalen-2-yl)prop-2-enoyl]amino]-1-oxopentyl]amino]-3-methylbutyl]], the IC50 in experiment [1] is < 10 nM. Further, the EC50 in experiment [2] (setting [3]) was 2000 to 10000 nM.
On the same counts, the results for `CCCCC(C(=O)N[C@@H](CCCNC(=N)N[N+](=O)[O-])C(=O)N[C@@H](CC(C)C)B(O)O)C1CCCC1` (mixture of isomers) [E.2.59, Boronic acid, [(1R)-1-[[(2S)-5-[[imino(nitroamino)methyl]amino]-2-[[(RS)-2-cyclopentylhexanoyl]amino]-1-oxopentyl]amino]-3-methylbutyl]] are < 10 nM and 2000 to 10000 nM.
Consider `CC(C)C[C@H](NC(=O)[C@H](CCCNC(=N)N[N+](=O)[O-])NC(=O)CSc1ncccn1)B1O[C@@H]2C[C@@H]3C[C@@H](C3(C)C)[C@]2(C)O1` [D.3.137], for which, in experiment [1], the IC50 was < 100 nM. Further, the EC50 in experiment [2] (setting [3]) lay in the range of 2000 to 10000 nM.
As to `CC(C)C[C@H](NC(=O)[C@H](CCCNC(=N)N[N+](=O)[O-])NC(=O)CC1CCCCCC1)B1O[C@@H]2C[C@@H]3C[C@@H](C3(C)C)[C@]2(C)O1` [D.3.43], the IC50 in experiment [1] was < 10 nM. Also, the EC50 in experiment [2] (setting [3]) is < 200 nM.
Take `CC(C)C[C@H](NC(=O)[C@H](CCCNC(=N)N[N+](=O)[O-])NC(=O)Cc1ccccc1Cl)B(O)O` [E.1.13, Boronic acid, [(1R)-1-[[(2S)-5-[[imino(nitroamino)methyl]amino]-2-[2-(2-chlorophenyl)acetyl]amino]-3-methylbutyl] HCl salt]: the IC50 in experiment [1] was < 10 nM. Besides, the EC50 in experiment [2] (read-out: MOLT4 (EC50); assay of Example E, inhibition of MOLT4) fell in the range of 2000 to 10000 nM.
Take `CC(C)C[C@H](NC(=O)[C@H](CCCNC(=N)N[N+](=O)[O-])NC(=O)CCCCc1ccccc1)B1O[C@@H]2C[C@@H]3C[C@@H](C3(C)C)[C@]2(C)O1` [D.3.132, 5-Phenylpentanamide,N-[(1S)-1-[[[(1R)-1-[(3aS,4S,6S,7aR)-hexahydro-3a,5,5-trimethyl-4,6-methano-1,3,2-benzodioxaborol-2-yl]-3-methylbutyl]amino]carbonyl]-4-[[imino(nitroamino)methyl]amino]butyl]]: the half-maximal inhibitory concentration (IC50) in experiment [1] was < 10 nM. For the same molecule, the EC50 in experiment [2] (setting [3]) was < 200 nM.
Take `CCCCC(CC)CCC(=O)N[C@@H](CCCNC(=N)N[N+](=O)[O-])C(=O)N[C@@H](CC(C)C)B(O)O` (mixture of isomers) [E.2.23, Boronic acid, [(1R)-1-[[(2S)-5-[[imino(nitroamino)methyl]amino]-2-[((RS)-4-ethyloctanoyl)amino]-1-oxopentyl]amino]-3-methylbutyl]]: in experiment [1], the IC50 was < 10 nM. Besides, in experiment [2] (setting [3]), the EC50 lay in the range of 200 to 2000 nM.
For the molecule `CC(C)C[C@H](NC(=O)[C@@H](NC(=O)c1ccc2ccccc2c1)[C@@H](C)O)B1O[C@@H]2C[C@@H]3C[C@@H](C3(C)C)[C@]2(C)O1` [D.3.180, Naphthalene-2-carboxamide,N-[(1S,2R)-1-[[[(1R)-1-[(3aS,4S,6S,7aR)-hexahydro-3a,5,5-trimethyl-4,6-methano-1,3,2-benzodioxaborol-2-yl]-3-methylbutyl]amino]carbonyl]-2-hydroxypropyl]], in experiment [1], the half-inhibitory concentration (IC50) was < 10 nM. The EC50 in experiment [2] (setting [3]) is < 200 nM.
Take `CCCCCCCNC(=O)N[C@@H](CCCNC(=N)N[N+](=O)[O-])C(=O)N[C@@H](CC(C)C)B1O[C@@H]2C[C@@H]3C[C@@H](C3(C)C)[C@]2(C)O1` [D.6.3, N-[(1S)-1-[[[(1R)-1-[(3aS,4S,6S,7aR)-hexahydro-3a,5,5-trimethyl-4,6-methano-1,3,2-benzodioxaborol-2-yl]-3-methylbutyl]amino]carbonyl]-4-[[imino(nitroamino)methyl]amino]butyl]-N′-heptyl urea]: the IC50 in experiment [1] was < 10 nM. In experiment [2] (setting [3]), the concentration giving a half-maximal response (EC50) was < 200 nM.
As for `CC(C)C[C@H](NC(=O)[C@H](CCCNC(=N)N[N+](=O)[O-])NC(=O)CSc1ccc2ccccc2c1)B1O[C@@H]2C[C@@H]3C[C@@H](C3(C)C)[C@]2(C)O1` [D.3.37], the IC50 in experiment [1] was < 10 nM. Besides, in experiment [2] (setting [3]), the EC50 is < 200 nM.
In the case of `CCCCCCCCCC(=O)N[C@@H](CNC(=O)c1ccc(C)cc1)C(=O)N[C@@H](CC(C)C)B1O[C@@H]2C[C@@H]3C[C@@H](C3(C)C)[C@]2(C)O1` [D.9, Decanamide, N-[(1S)-1-[[[(1R)-1-[(3aS,4S,6S,7aR)-hexahydro-3a,5,5-trimethyl-4,6-methano-1,3,2-benzodioxaborol-2-yl]-3-methylbutyl]amino]carbonyl]-2-[(4-methylbenzoyl)amino]ethyl]-], the IC50 in experiment [1] is < 10 nM. For the same molecule, the concentration for a half-maximal effect (EC50) in experiment [2] (setting [3]) was < 200 nM.
Take `CCCCC[C@H]1CC[C@H](C(=O)N[C@@H](CCCNC(=N)N[N+](=O)[O-])C(=O)N[C@@H](CC(C)C)B2O[C@@H]3C[C@@H]4C[C@@H](C4(C)C)[C@]3(C)O2)CC1` [D.3.11, trans-4-Pentylcyclohexanecarboxamide, N-[(1S)-1-[[[(1R)-1-[(3aS,4S,6S,7aR)-hexahydro-3a,5,5-trimethyl-4,6-methano-1,3,2-benzodioxaborol-2-yl]-3-methylbutyl]amino]carbonyl]-4-[[imino(nitroamino)methyl]amino]butyl]]: the IC50 in experiment [1] is < 10 nM. For the same molecule, the EC50 in experiment [2] (setting [3]) is < 200 nM.
